In patent publication US20030176314A1, “Compounds for the treatment of pain” (priority 2001, published 2003) one finds Ki data, which are given here for two compounds.

For test [1], the target named is T1, human α1D adrenergic receptor (Homo sapiens, UniProt P25100).
T1 construct: host or cells: LM(tk-) cells, line L-α1A
T1 sequence (P25100 1-572): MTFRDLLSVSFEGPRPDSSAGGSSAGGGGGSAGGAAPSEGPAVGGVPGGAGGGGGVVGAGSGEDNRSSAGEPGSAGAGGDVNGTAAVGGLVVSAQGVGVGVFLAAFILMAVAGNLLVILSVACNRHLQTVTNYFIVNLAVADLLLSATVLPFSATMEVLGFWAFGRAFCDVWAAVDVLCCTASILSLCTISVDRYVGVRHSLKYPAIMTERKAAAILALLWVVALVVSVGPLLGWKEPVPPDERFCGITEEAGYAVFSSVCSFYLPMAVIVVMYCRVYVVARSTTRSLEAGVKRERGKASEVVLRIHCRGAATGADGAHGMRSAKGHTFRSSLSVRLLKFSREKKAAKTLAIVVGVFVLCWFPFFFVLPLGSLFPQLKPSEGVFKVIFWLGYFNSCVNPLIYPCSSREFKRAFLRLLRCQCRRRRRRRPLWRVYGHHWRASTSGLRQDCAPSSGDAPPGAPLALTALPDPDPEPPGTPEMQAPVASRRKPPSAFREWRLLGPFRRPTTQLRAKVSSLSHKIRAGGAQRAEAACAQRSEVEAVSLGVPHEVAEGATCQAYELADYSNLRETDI
Briefly: Binding at human α1D adrenergic receptor. Conditions: Table 8; read-out: hα1D Ki. The source says: (§1) α1 Human Adrenergic Receptors: To determine the binding of compounds to human α1 receptors, LM(tk−) cell lines stably transfected with the genes encoding the α1a, α1b, and α1d receptors were used. The nomenclature describing the α1 receptors was changed recently, such that the receptor formerly designated α1a is now designated α1d, and the receptor formerly designated α1c is now designated α1a. The cell lines expressing these receptors were deposited with the ATCC before the nomenclature change and reflect the subtype designations formerly assigned to these receptors. Thus, the cell line expressing the receptor described herein as the α1a receptor was deposited with the ATCC on Sep. […] The cell line expressing receptor described herein as the α1d receptor was deposited with the ATCC on Sep. […] The cell line expressing the α1b receptor is designated L-α1B, and was deposited on Sep.
(§2) The binding affinity (Ki) of these compounds were tested according to the protocols described herein at the following receptors; human α1A, α1B, α1D, α2A, α2B, and α2C adrenergic receptors; human Y1, Y2, Y4, and Y5 receptors; and N-Methyl-D-aspartic acid (NMDA) receptor channels. The binding interactions of these compounds were additionally tested at the norepinephrine (NE) transporter (NE uptake) and serotonin (5-hydroxytryptamine (5HT)) transporter (5HT uptake) according to protocols described herein

Test [2] concerns the target T2, human α1B adrenergic receptor (Homo sapiens, UniProt P35368).
T2 construct: host or cells: LM(tk-) cells, line L-α1B
T2 sequence (P35368 1-520): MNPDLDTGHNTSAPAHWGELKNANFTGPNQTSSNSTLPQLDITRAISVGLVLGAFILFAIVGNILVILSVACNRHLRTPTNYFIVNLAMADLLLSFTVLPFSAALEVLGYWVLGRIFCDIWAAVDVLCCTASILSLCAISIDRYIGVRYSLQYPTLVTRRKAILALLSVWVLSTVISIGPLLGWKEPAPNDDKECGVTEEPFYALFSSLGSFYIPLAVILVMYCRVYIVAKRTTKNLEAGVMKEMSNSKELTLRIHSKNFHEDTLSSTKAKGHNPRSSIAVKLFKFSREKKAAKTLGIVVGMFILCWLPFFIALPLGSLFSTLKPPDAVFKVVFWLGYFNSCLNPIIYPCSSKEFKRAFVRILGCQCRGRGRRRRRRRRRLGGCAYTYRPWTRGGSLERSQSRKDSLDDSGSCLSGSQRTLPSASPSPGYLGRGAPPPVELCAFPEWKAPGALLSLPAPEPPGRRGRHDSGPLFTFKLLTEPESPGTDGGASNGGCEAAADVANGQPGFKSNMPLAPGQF
Briefly: Binding at human α1B adrenergic receptor. Conditions: Table 8; read-out: hα1B Ki.
Excerpt: as §1, §2

The target of test [3] is T3, human α2C adrenergic receptor (Homo sapiens, UniProt P18825).
T3 construct: host or cells: LM(tk-) cells, line L-α2C
T3 sequence (P18825 1-462): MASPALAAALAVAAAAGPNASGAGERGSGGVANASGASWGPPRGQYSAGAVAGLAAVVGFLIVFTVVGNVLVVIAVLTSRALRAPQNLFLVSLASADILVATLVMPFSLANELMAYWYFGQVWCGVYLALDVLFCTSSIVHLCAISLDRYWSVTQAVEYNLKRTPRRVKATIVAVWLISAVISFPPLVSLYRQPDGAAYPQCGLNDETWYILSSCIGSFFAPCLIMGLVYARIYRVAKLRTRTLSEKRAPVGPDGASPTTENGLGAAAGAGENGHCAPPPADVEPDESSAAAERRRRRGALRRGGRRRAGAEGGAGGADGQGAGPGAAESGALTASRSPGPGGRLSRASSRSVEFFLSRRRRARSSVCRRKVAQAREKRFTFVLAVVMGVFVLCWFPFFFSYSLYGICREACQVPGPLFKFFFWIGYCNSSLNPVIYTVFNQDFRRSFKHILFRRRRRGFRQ
Put plainly: Binding at human α2C adrenergic receptor. Conditions: Table 8; read-out: hα2C Ki.
Excerpt: α2 Human Adrenergic Receptors: To determine the binding of compounds to human α2 receptors, LM(tk−) cell lines stably transfected with the genes encoding the α2A, α2B, and α2C receptors were used. The cell line expressing the α2A receptor is designated L-α2A, and was deposited on Nov. 6, 1992, under ATCC Accession No. CRL 11180. The cell line expressing the α2B receptor is designated L-NGC-α2B, and was deposited on Oct. 25, 1989, under ATCC Accession No. CRL 10275. The cell line expressing the α2C receptor is designated L-α2C, and was deposited on Nov. 6, 1992, under ATCC Accession No. CRL-11181. Cell lysates were prepared as described herin, and suspended in 25 mM glycyiglycine buffer (pH 7.6 at room temperature). Equilibrium competition binding assay were performed using […] (0.5 nM), and nonspecific binding was determined by incubation with 10 μM phentolamine. The bound radioligand was separated by filtration through GF/B filters using a cell harvester.
as §2

The Ki is the equilibrium dissociation constant of an inhibitor or competing ligand from its target. As to `Cc1nc(NC(=N)N)nc2ccc3ccccc3c12` [Compound 1007A], the Ki in test [1] turned out to be 8.58 µM; in test [2], 3.04 µM. For the compound `Cc1cc(NC(=N)N)nc2ccc(Cl)cc12` [Compound 4005A, N-(6-chloro-4-methyl-2-quinolinyl)guanidine], in test [3], the inhibition constant Ki came to 0.765 µM.
